{
  "source": "patent US20200078404A1",
  "about": "“COMBINATION OF A CELL THERAPY AND AN IMMUNOMODULATORY COMPOUND” (Juno Therapeutics, Inc., priority 2017, published 2020)",
  "key": {"Ikaros": {"tested_on": "Ikaros", "assay": "Intracellular Ikaros in anti-CD19 CAR-expressing T cells (flow cytometry)", "format": "cell-based, human", "method": "Cells of the enriched CD4+ and CD8+ compositions were separately activated with anti-CD3/anti-CD28 beads and subjected to lentiviral transduction with a vector encoding an anti-CD19 CAR. […] Transduced populations then were separately incubated in the presence of stimulating reagents for cell expansion."}, "[1]": {"tested_on": "anti-CD19 CAR-expressing T cells", "assay": "Serial stimulation with K562.CD19: surface markers", "format": "cell-based, human", "method": "(§1) Every 3-4 days (start of each new round), the cells were counted.\nExpression of select surface markers was assessed on cells at day 4 (i.e., 4 days after the first stimulation) and day 28 (i.e., 4 days after the seventh stimulation). Specifically, harvested cells were analyzed by flow cytometry for CD3, CD4, CD8 and the surrogate marker for CAR expression, and also for the following surface markers: CD69, CD107a, PD-1, CD25, CD62L, CCR7, CD45RO, CD27, and LAG3."}, "[2]": {"tested_on": "Raji lymphoma tumor cells", "assay": "Raji lymphoma xenograft model, anti-CD19 CAR-expressing cells with Compound 1", "format": "in vivo, mouse", "details": "Compound 1 0.3 mg/kg i.p. daily, Concurrent and Delayed groups, combined with anti-CD19 CAR-expressing cells, vs CAR-expressing cells alone", "method": "The anti-tumor efficacy of CAR-expressing T cells in combination with Compound 1 was assessed by monitoring tumors in a tumor xenograft model. […] T cell compositions were generated from three different donors.\nNOD.Cg.Prkdc^scidIL2rg^tm1Wjl/SzJ (NSG) mice were injected intravenously (i.v.) with 0.5×10^6 Raji lymphoma tumor cells (an immortalized human B lymphocyte tumor cell line that expresses CD19) that were transfected with firefly luciferase (Raji-ffluc). Tumor engraftment was allowed to occur for 6 days and verified using bioluminescence imaging. On Day 7, mice either received no treatment, or a single intravenous (i.v.) injection of anti-CD19 CAR-expressing cells at a low dose (0.5×10^6 cells) or a high dose (1.0×10^6 cells). […] Tumor burden was assessed by bioluminescence every 10 days. For bioluminescence imaging, mice received intraperitoneal (i.p.) injections of luciferin substrate (CaliperLife Sciences, Hopkinton, Mass.) resuspended in PBS (15 μg/g body weight). The average radiance (p/s/cm^2/sr) was determined."}, "K562.CD19 target cells [3]": {"tested_on": "K562.CD19 target cells", "assay": "Cytolytic function of anti-CD19 CAR-expressing T cells against K562.CD19 target cells", "format": "cell-based, human", "method": "K562.CD19 target cells were transduced with NucLight Red to permit their tracking by microscopy. Cytolytic activity was assessed by measuring the loss of viable target cells over a period of five days, as determined by red fluorescent signal (using the IncuCyte® Live Cell Analysis System, Essen Bioscience)."}, "[4]": {"tested_on": "anti-CD19 CAR-expressing T cells", "assay": "Serial stimulation with K562.CD19: expansion (cell doublings)", "format": "cell-based, human", "from_the_text": "as §1"}, "[5]": {"tested_on": "anti-CD19 CAR-expressing T cells", "assay": "Surface markers after anti-idiotypic antibody stimulation", "format": "cell-based, human", "from_the_text": "CAR-expressing T cells were stained for CD3, CD4, CD8 and the surrogate marker for CAR expression, and also for the following markers: CD25, PD-1, and CD69."}, "[6]": {"tested_on": "anti-CD19 CAR-expressing T cells", "assay": "Cytokine production after anti-idiotypic antibody stimulation", "details": "anti-idiotypic antibody 0.3-30 μg/ml, 24 hours; Compound 1 100, 1000 nM; lenalidomide 500, 5000 nM"}, "[7]": {"tested_on": "anti-CD19 CAR-expressing T cells", "assay": "Cytokine production of anti-CD19 CAR-expressing T cells incubated with K562.CD19 target cells", "format": "cell-based, human"}, "[8]": {"tested_on": "anti-CD19 CAR-expressing T cells", "assay": "T cell surface markers of anti-CD19 CAR-expressing T cells incubated with K562.CD19", "format": "cell-based, human"}, "K562.CD19 target cells [9]": {"tested_on": "K562.CD19 target cells", "assay": "Serial stimulation with K562.CD19: cytolytic function at day 24", "format": "cell-based, human", "details": "day 24 after serial stimulation", "from_the_text": "as §1"}},
  "data": [
    {"smiles": "Cc1nc2cccc(N)c2c(=O)n1C1CCC(=O)NC1=O", "note": "(stereo not drawn) [Compound 1]", "values": [
      {"measurement": "reduction in Ikaros expression compared to lenalidomide", "setting": "Ikaros", "value": "greater reduction in Ikaros expression"},
      {"measurement": "intracellular Ikaros expression", "setting": "Ikaros; CD4+ and CD8+ anti-CD19 CAR-expressing T cells", "value": "concentration-dependent decrease in intracellular Ikaros expression"},
      {"measurement": "expression of CD28", "setting": "[1]; CD4+ and CD8+ CAR-expressing T cells, day 28, three donors", "value": "decreased in a dose-dependent manner"},
      {"measurement": "PD-1 expression", "setting": "[1]; both E:T ratios, day 4 and day 28", "value": "downregulated to some degree in all donors"},
      {"measurement": "CD25 and LAG3 expression", "setting": "[1]; day 4", "value": "upregulated across all three donors"},
      {"measurement": "CCR7 expression", "setting": "[1]; day 28", "value": "generally decreased at day 28"},
      {"measurement": "tumor burden and survival", "setting": "[2]", "value": "reduce tumor burden and improve survival data"},
      {"measurement": "cytolytic activity of anti-CD19 CAR-expressing cells", "setting": "K562.CD19 target cells [3]; 2.5:1 E:T ratio, some donors", "value": "slightly reduced cytolytic activity"},
      {"measurement": "cytolytic activity of anti-CD19 CAR-expressing T cells", "setting": "K562.CD19 target cells [3]; 5:1 E:T ratio, high concentrations, Donor 2, no effects with Donors 1 and 3", "value": "slight but consistent increase in cytolytic activity"},
      {"measurement": "cytolytic function of anti-CD19 CAR-expressing T cells", "setting": "K562.CD19 target cells [3]; five days, three donors", "value": "limited effect on cytolytic function"},
      {"measurement": "cell counts of anti-CD19 CAR-expressing T cells", "setting": "[4]; 10 nM and 100 nM Compound 1, after 24 days", "value": "higher than the untreated controls for two out of three donors"},
      {"measurement": "number of doublings of CAR+ cells", "setting": "[4]; 500 nM Compound 1, rounds after 3-4 rounds of stimulation", "value": "lower than the untreated control groups"},
      {"measurement": "surface markers CD25 and CD69", "setting": "[5]; CD4+ and CD8+ CAR-expressing T cells, day 4, some donors", "value": "increase in surface markers CD25 and CD69"},
      {"measurement": "expression of PD-1", "setting": "[5]; day 4, unchanged or decreased in the other donors", "value": "increased in the presence of Compound 1 or lenalidomide in cells generated from at least one donor"},
      {"measurement": "IFN-γ, IL-2 and TNF-α production", "setting": "[6]", "value": "increased relative to the vehicle control"},
      {"measurement": "cytokine production compared to lenalidomide at equivalent concentrations", "setting": "[7]", "value": "greater cytokine production across multiple conditions"},
      {"measurement": "cytokine production (IFN-γ, IL-2, TNF-α)", "setting": "[7]; concentration-dependent, E:T 5:1 and 2.5:1, 24 hours, vs vehicle", "value": "increased"},
      {"measurement": "expression of CD27", "setting": "[8]; all donors and E:T ratios", "value": "downregulated in a concentration-dependent manner"},
      {"measurement": "expression of CD45RO", "setting": "[8]; all donors and E:T ratios", "value": "increased"},
      {"measurement": "expression of CD69 and LAG3", "setting": "[8]; cells derived from donor 3", "value": "increased in a concentration-dependent manner"},
      {"measurement": "cytolytic activity of anti-CD19 CAR-expressing T cells", "setting": "K562.CD19 target cells [9]", "value": "increase the cytolytic activity"}
    ]}
  ]
}
